Patent publication US4853463A, “Amino acid derivatives” (Kissei Pharmaceutical Co., Ltd., priority 1985, dated 1989)

Key:
[1] = target: T1, human renin (Homo sapiens, UniProt P00797); set-up: human high renin plasma; from tissue; host or cells: human high renin plasma; details: reported at 1986 meetings; cited from earlier work
T1 sequence (P00797 67-406): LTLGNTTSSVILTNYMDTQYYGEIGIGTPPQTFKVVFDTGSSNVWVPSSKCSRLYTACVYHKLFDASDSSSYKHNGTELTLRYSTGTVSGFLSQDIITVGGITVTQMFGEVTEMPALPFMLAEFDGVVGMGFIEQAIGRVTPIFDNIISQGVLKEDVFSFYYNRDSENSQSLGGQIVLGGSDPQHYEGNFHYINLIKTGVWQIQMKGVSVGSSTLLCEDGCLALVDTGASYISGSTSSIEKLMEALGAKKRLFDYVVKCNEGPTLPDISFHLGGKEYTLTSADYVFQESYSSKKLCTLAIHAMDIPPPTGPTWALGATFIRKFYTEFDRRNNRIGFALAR

[2] = Hypotensive effect in marmoset; type: in vivo, common marmoset; details: 30 mg/kg oral, furosemide-treated high renin marmoset, Control 84.3 mmHg
Experimental: Hypotensive effect in marmoset
The experiment was carried out by using common marmoset as described in K. G. Hofbauer et al., Clinical and Experimental hypertension, Vol. A5, Nos. 7 & 8 (1983), pages 1237-1247.
Furosemide was orally administered three times to common marmoset at 15 mg per kilogram per day every other day to create a high renin state. Blood pressure of conscious marmoset was measured 3 days after the last administration of furosemide.
Measurement of blood pressure
A conscious male marmoset weighing 360 g was binded on a monkey chair, and tailarterial pressure was recorded on a pretismograph. The amino acid compound of the present invention, administred orally using a catheter.
(a) Compound: Isopropyl (2RS, 3S)-3-{N-[2-(1-naphthylmethyl)-3-(morpholinocarbonyl)propionyl]-L-alanyl}amino-2-hydroxy-5-methylhexanoate

[3] = target: T1, human renin; assay: Human renin-sheep renin substrate reaction system in vitro; type: biochemical; details: purified human renin, semipurified sheep renin substrate, pH 7.4, 37° C., 15 minutes
Experimental: Human renin-sheep renin substrate reaction system in vitro
To a mixture containing 200 μl of a 125 mM pyrophosphate buffer (pH 7.4), 25 μl of a 20 mM aqueous solution of L-phenylalanyl-L-alanyl-L-prolin as an angiotensin converting enzyme inhibitor, 50 μl of semipurified sheep renin substrate (2000 ng angiotensin I/ml), 50 μl of dimethyl sulfoxide solution of an amino acid derivative of the present invention or 50 μl of dimethyl sulfoxide as a control and 150 μl of deionized water was added 25 μl of purified human renin (20-30 ng angiotensin I/ml/hr). The mixture was incubated for 15 minutes on a water bath at 37° C., and the reaction mixture was allowed to stand for 5 minutes on a water bath at 100° C. to stop the reaction. After cooling, 200 μl of the solution were taken out and the amount of angiotensin I produced by the addition of renin was determined by radioimmunoassay. The inhibitory effect was calculated by the following equation. [formula]
The molar concentration which produced a 50% inhibition (IC50) was calculated from the inhibition value obtained, and the results are shown below. [drawing 19]

[4] = target: T1, human renin; assay: Renin inhibitory effect in a human high renin plasma; type: biochemical; set-up: human high renin plasma; from tissue; host or cells: human high renin plasma; details: phosphate buffer pH 7.0, 37° C., 60 minutes
Experimental: Renin inhibitory effect in a human high renin plasma
The mixture consisted of 500 μl of human high renin plasma, 50 μl of 20 mM L-phenylalanyl-L-alanyl-L-prolin, an angiotensin converting enzyme inhibitor, 350 μl of 0.5 M phosphate buffer (pH 7.0) containing 14 mM EDTA·2Na and 0.3% neomycin and 100 μl of appropriate concentration of amino acid compound of the present invention dissolved in DMSO or DMSO as a control. A 200 μl sample was taken out from the solution, and was cooled at 4° C. in an ice bath. The remaining sample (800 μl) was incubated for 60 minutes at 37° C. in a water bath. A 200 μl of sample was taken out from the incubated mixture, and chilled immediately in an ice bath. The amount of angiotensin I produced in both samples was determined by radioimmunoassay, and the net amount was estimated as a difference between the samples incubated at 37° C. and the sample cooled at 4° C.
The inhibitory effect was calculated by the following equation: [formula]
The molar concentration which produced 50% inhibition (IC50) was calculated from the inhibition value obtained, and the results are shown below. [drawing 32]

| SMILES | IC50 [3] [nM] | IC50 [4] [nM] | further results |
| --- | --- | --- | --- |
| COC(=O)C(O)C(CC(C)C)NC(=O)[C@H](Cc1c[nH]cn1)NC(=O)C(CC(=O)NCCc1ccccc1)Cc1cccc2ccccc12 (stereo partly drawn) |  |  | Human renin inhibitory activity [1]: human renin inhibitory activity |
| CC(C)C[C@H](NC(=O)[C@H](C)NC(=O)C(CC(=O)N1CCOCC1)Cc1cccc2ccccc12)C(O)C(=O)OC(C)C (mixture of isomers) [No. 1, Isopropyl (2RS, 3S)-3-{N-[2-(1-naphthylmethyl)-3-(morpholinocarbonyl)propionyl]-L-alanyl}amino-2-hydroxy-5-methylhexanoate] | 26 | 20 | Blood pressure ([2]; 1 hour after administration): 75.8 mmHg; Blood pressure ([2]; 2 hours after administration): 70.0 mmHg; Blood pressure ([2]; 3 hours after administration): 70.0 mmHg; Blood pressure ([2]; 5 hours after administration): 70.0 mmHg; Blood pressure ([2]; 7 hours after administration): 72.6 mmHg |
| COC(=O)C(O)[C@H](CC(C)C)NC(=O)[C@H](CC(C)C)NC(=O)C(CC(=O)N1CCOCC1)Cc1cccc2ccccc12 (mixture of isomers) [No. 3, Methyl (2RS, 3S)-3-{N-[2-(1-naphthylmethyl)-3-(morpholinocarbonyl)propionyl]-L-leucyl}amino-2-hydroxy-5-methylhexanoate] | 30 | 11 |  |
| CC(C)CCNC(=O)C[C@H](O)[C@H](CC(C)C)NC(=O)[C@H](CC(C)C)NC(=O)C(CC(=O)N1CCOCC1)Cc1cccc2ccccc12 (stereo partly drawn) [No. 4, N-[2-(1-Naphthylmethyl)-3-(morpholinocarbonyl)-propionyl]-L-leucyl-statiyl isoamylamide] | 80 | 61 |  |
| CC(C)C[C@H](NC(=O)C(CC(=O)N1CCOCC1)Cc1cccc2ccccc12)C(=O)N[C@@H](CC(C)C)C(O)C(=O)OC(C)C (stereo partly drawn) [compound 2] | 14 | 16 |  |
| CC(C)C[C@H](NC(=O)[C@@H](NC(=O)C(CC(=O)N1CCOCC1)Cc1cccc2ccccc12)C(C)C)C(O)C(=O)OC(C)C (stereo partly drawn) [compound 5] | 6.6 | 3.3 |  |
| CC(C)C[C@H](NC(=O)[C@H](Cc1ccccc1)NC(=O)C(CC(=O)N1CCOCC1)Cc1cccc2ccccc12)C(O)C(=O)OC(C)C (stereo partly drawn) [compound 6] | 48 | 140 |  |
| CC(C)C[C@H](NC(=O)[C@H](Cc1c[nH]c2ccccc12)NC(=O)C(CC(=O)N1CCOCC1)Cc1cccc2ccccc12)C(O)C(=O)OC(C)C (stereo partly drawn) [compound 7] | 290 | 510 |  |
| CC(C)C[C@H](NC(=O)[C@H](CO)NC(=O)C(CC(=O)N1CCOCC1)Cc1cccc2ccccc12)C(O)C(=O)OC(C)C (stereo partly drawn) [compound 8] | 26 | 7.2 |  |
| CC(C)C[C@H](NC(=O)CNC(=O)C(CC(=O)N1CCOCC1)Cc1cccc2ccccc12)C(O)C(=O)OC(C)C (stereo partly drawn) [compound 9] | 390 | 200 |  |
| CC(C)C[C@H](NC(=O)CCNC(=O)C(CC(=O)N1CCOCC1)Cc1cccc2ccccc12)C(O)C(=O)OC(C)C (stereo partly drawn) [compound 10] | 130 | 46 |  |
| COC(=O)[C@@H]1CCCN1C(=O)CC(Cc1cccc2ccccc12)C(=O)N[C@@H](C)C(=O)N[C@@H](CC(C)C)C(O)C(=O)OC(C)C (stereo partly drawn) [compound 11] | 59 | 44 |  |
| COC(=O)CN(C)C(=O)CC(Cc1cccc2ccccc12)C(=O)N[C@@H](C)C(=O)N[C@@H](CC(C)C)C(O)C(=O)OC(C)C (stereo partly drawn) [compound 12] | 15 | 13 |  |
